Some test systems named below: OVCAR-3; A498; RXF 393; U-251; SK-OV-3; UO-31; T47D; A549; MOLT-4; RPMI-8226; HT-29; NCI-H460; OVCAR-8; CAKI-1; DU-145; OVCAR-5; NCI-H522; OVCAR-4; 786-0; CCRF-CEM.
Assay in all cases: growth of human tumour cells (NCI), 48 h

The structures appear in SMILES notation.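 Five compound concentrations were applied to cells in 96-well plates for 48 hours; endpoints were derived by simple linear interpolation of the resulting dose-response curve. Here, GI50 denotes the concentration required for 50% inhibition of growth.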 Activity calls are given as the source filed them. Cut-off read from the data, not from the text of the source: active = GI50 up to about 1.1 µM and inactive = higher.

Data on two compounds can be found in ChEMBL document CHEMBL1201862, “PubChem BioAssay data set” (2004).

Regarding `Cc1nc(N)nc(S)c1CCCNc1ccccc1`, the GI50 with OVCAR-3 is > 100 µM (inactive); in the assay with A498, 26.1 µM (inactive); with RXF 393 it was > 100 µM (inactive); in the assay on U-251, 68.9 µM (inactive); in the assay with SK-OV-3 it was > 100 µM (inactive); in the assay with UO-31, 59.3 µM (inactive). Besides, the GI50 is 20.4 µM (inactive) in the assay on T47D; 52.2 µM (inactive) in the assay with A549; 3.21 µM (inactive) in the assay with MOLT-4; 27.2 µM (inactive) in the assay with RPMI-8226; 68.7 µM (inactive) in the assay with HT-29; 35 µM (inactive) in the assay with NCI-H460. The GI50 is 20.5 µM (inactive) in the assay with OVCAR-8; > 100 µM (inactive) with CAKI-1; 76.2 µM (inactive) in the assay with DU-145; > 100 µM (inactive) in the assay with OVCAR-5; 34.4 µM (inactive) in the assay on NCI-H522; > 100 µM (inactive) in the assay with OVCAR-4. For the same compound, the GI50 was > 100 µM (inactive) with 786-0 and 28 µM (inactive) in the assay with CCRF-CEM.
For the compound `CCCCCNC(=O)c1cc2cc(CCl)ccc2oc1=O`, the GI50 in the assay with OVCAR-3 was 8.02 µM (inactive); in the assay on A498 it was 1.86 µM (inactive); in the assay on RXF 393, 0.798 µM (active); in the assay with U-251, 9.98 µM (inactive); in the assay with SK-OV-3, 5.19 µM (inactive); with UO-31, 1.63 µM (inactive). In addition, the GI50 with T47D was 1.3 µM (inactive); with A549, 4.65 µM (inactive); in the assay with MOLT-4 it was 6.68 µM (inactive); in the assay with RPMI-8226 it was 10 µM (inactive); with HT-29 it was 2.42 µM (inactive); in the assay with NCI-H460, 1.61 µM (inactive). Further, the GI50 in the assay with OVCAR-8 was 35.7 µM (inactive); with CAKI-1, 1.21 µM (inactive); in the assay with DU-145 it was 2.26 µM (inactive); with OVCAR-5, 2.88 µM (inactive); in the assay with NCI-H522 it was 3.24 µM (inactive); in the assay with OVCAR-4 it was 7.23 µM (inactive). Also, the GI50 in the assay with 786-0 was 1.34 µM (inactive); in the assay with CCRF-CEM, > 100 µM (inactive).
